# Experimental data reported in patent US6638964B2, “Sulfonamide-containing indole compounds” (Eisai Co., Ltd., priority 1999, dated 2003).
# System: Mouse B16 melanoma cells
# Assay: Inhibitory effect of proliferation of mouse B16 melanoma (MTT method)
# Assay type: cell-based
# Settings: 72 h, incubating for 3 days
# Description: Mouse B16 melanoma cells incubated in a Dulbecco-modified Eagle medium (DMED; manufactured by Nissui Seiyaku) containing 10% of fetal bovine serum, 100 Units/ml of penicillin and 100 μg/ml of streptomycin were adjusted to 2^×10^4 cells/ml and each 100 μl thereof were separately placed on a 96-well plate. After an incubation was carried out in a CO2 incubator (5% CO2) at 37° C. for one night, then 100 μl of the above culture containing a test compound diluted in a 3-fold series were added thereto followed by incubating for 3 days and the cell numbers at that time were measured by an MTT method. Incidentally, a treatment with a 0.33% MTT solution was carried out for 1-2 hour(s).
# (§1) Inhibiting rate was calculated from the following formula and 50% inhibiting concentration (IC50) was determined for each compound.
# (§2) Inhibiting Rate (%)=(C−T)/C^×100
# (§3) C: Absorbance when no compound was added
# (§4) T: Absorbance when a compound was added
row,SMILES,IC50 [µg/mL]
1,"Cc1ccc(NS(=O)(=O)c2cccc(C#N)c2)c2[nH]cc(C#N)c12 [Example 1, 3-Cyano-N-(3-cyano-4-methyl-1H-indol-7-yl)benzenesulfonamide]",10
2,"Cc1ccc(NS(=O)(=O)c2ccc(Cl)nc2)c2[nH]cc(C#N)c12 [Example 2, 6-Chloro-N-(3-cyano-4-methyl-1H-indol-7-yl)-3-pyridinesulfonamide]",15
3,"Cc1cc(NS(=O)(=O)c2ccc(S(N)(=O)=O)cc2)c2[nH]cc(Br)c2c1 [Example 3, N-(3-Bromo-5-methyl-1H-indole-7-yl)-4-sulfamoylbenzenesulfonamide]",21
4,"Nc1ccc(S(=O)(=O)Nc2cc(Br)cc3c(Cl)c[nH]c23)cn1 [Example 4, 6-Amino-N-(5-bromo-3-chloro-1H-indole-7-yl)-3-pyridinesulfonamide]",19
5,"Cc1cc(NS(=O)(=O)c2cccc(C#N)c2)c2[nH]cc(Br)c2c1 [Example 5, N-(3-Bromo-5-methyl-1H-indole-7-yl)-3-cyanobenzenesulfonamide]",8.8
6,"N#Cc1ccc(S(=O)(=O)Nc2ccc(Br)c3cc[nH]c23)cc1 [Example 6, N-(4-Bromo-1H-indole-7-yl)-4-cyanobenzenesulfonamide]",6.5
7,"Nc1ccc(S(=O)(=O)Nc2ccc(Cl)c3cc[nH]c23)cn1 [Example 7, 6-Amino-N-(4-chloro-1H-indole-7-yl)-3-pyridinesulfonamide]",7.5
8,"Nc1ccc(S(=O)(=O)Nc2ccc(Cl)c3c(Br)c[nH]c23)cn1 [Example 8, 6-Amino-N-(3-bromo-4-chloro-1H-indole-7-yl)-3-pyridinesulfonamide]",19
9,"Cc1cc(NS(=O)(=O)c2ccc(C#N)s2)c2[nH]cc(Br)c2c1 [Example 9, N-(3-Bromo-5-methyl-1H-indole-7-yl)-5-cyano-2-thiophenesulfonamide]",8.4
10,"Nc1ncc(S(=O)(=O)Nc2ccc(Br)c3c(Cl)c[nH]c23)cn1 [Example 10, 2-Amino-N-(4-bromo-3-chloro-1H-indole-7-yl)-5-pyrimidinesulfonamide]",23

# System: Endothelial cells derived from human umbilical vein (HUVEC)
# Assay: Inhibitory effect of growth of endothelial cells (MTT method)
# Assay type: cell-based
# Settings: 72 h, incubating for three days
# Description: Endothelial cells derived from human umbilical vein (HUVEC; manufactured by Sanko Junyaku) incubated in an EGM medium (manufactured by Sanko Junyaku) containing 100 Units of penicillin and 100 μg/ml of streptomycin were adjusted to 0.8-1×10^4 cells/ml and each 100 μl were separately placed on a 96-well plate. After incubating in a CO2 incubator (5% CO2) at 37 ° C. overnight, 100 μl of EGM medium containing test compound diluted in a three-fold manner were added thereto followed by incubating for three days. The cell numbers at that time were measured by MTT method. That is, 50 μl of phosphate buffer containing 0.33% of 3-(4,5-dimethylthiazol-2-yl)-2,5-diphenyltetrazolium bromide (MTT) was added thereto and incubation was continued for 3-4 hours. Then, after the supernatant liquid of the culture was removed, 100 μl of dimethyl sulfoxide (DMSO) was added to dissolve a formazane which was formed in the cells and the absorbance at the wave length of 540 nm was measured by use of plate reader (manufactured by Corona Denki).
# as §1
# Inhibition Rate (%)=(C−T)/C×100
# as §3, §4
row,SMILES,IC50 [µg/mL]
1,"Cc1ccc(NS(=O)(=O)c2cccc(C#N)c2)c2[nH]cc(C#N)c12 [Example 1, 3-Cyano-N-(3-cyano-4-methyl-1H-indol-7-yl)benzenesulfonamide]",0.1
2,"Cc1ccc(NS(=O)(=O)c2ccc(Cl)nc2)c2[nH]cc(C#N)c12 [Example 2, 6-Chloro-N-(3-cyano-4-methyl-1H-indol-7-yl)-3-pyridinesulfonamide]",0.12
3,"Cc1cc(NS(=O)(=O)c2ccc(S(N)(=O)=O)cc2)c2[nH]cc(Br)c2c1 [Example 3, N-(3-Bromo-5-methyl-1H-indole-7-yl)-4-sulfamoylbenzenesulfonamide]",0.62
4,"Nc1ccc(S(=O)(=O)Nc2cc(Br)cc3c(Cl)c[nH]c23)cn1 [Example 4, 6-Amino-N-(5-bromo-3-chloro-1H-indole-7-yl)-3-pyridinesulfonamide]",1.3
5,"Cc1cc(NS(=O)(=O)c2cccc(C#N)c2)c2[nH]cc(Br)c2c1 [Example 5, N-(3-Bromo-5-methyl-1H-indole-7-yl)-3-cyanobenzenesulfonamide]",0.98
6,"N#Cc1ccc(S(=O)(=O)Nc2ccc(Br)c3cc[nH]c23)cc1 [Example 6, N-(4-Bromo-1H-indole-7-yl)-4-cyanobenzenesulfonamide]",1.2
7,"Nc1ccc(S(=O)(=O)Nc2ccc(Cl)c3cc[nH]c23)cn1 [Example 7, 6-Amino-N-(4-chloro-1H-indole-7-yl)-3-pyridinesulfonamide]",0.98
8,"Nc1ccc(S(=O)(=O)Nc2ccc(Cl)c3c(Br)c[nH]c23)cn1 [Example 8, 6-Amino-N-(3-bromo-4-chloro-1H-indole-7-yl)-3-pyridinesulfonamide]",0.49
9,"Cc1cc(NS(=O)(=O)c2ccc(C#N)s2)c2[nH]cc(Br)c2c1 [Example 9, N-(3-Bromo-5-methyl-1H-indole-7-yl)-5-cyano-2-thiophenesulfonamide]",1.6
10,"Nc1ncc(S(=O)(=O)Nc2ccc(Br)c3c(Cl)c[nH]c23)cn1 [Example 10, 2-Amino-N-(4-bromo-3-chloro-1H-indole-7-yl)-5-pyrimidinesulfonamide]",0.38

# System: KP-1 cell strain derived from human pancreatic cancer
# Assay: Antitumor effect, KP-1 human pancreatic cancer subcutaneously transplanted to nude mice
# Assay type: in vivo, nude mice (KSN)
# Settings: 50 mg/kg per os two times a day, 22nd day, KP-1
# Description: (§5) In the meanwhile, evaluation of an antitumor effect was carried out in accordance with a method of Koyanagi, et al. (Cancer Res., 94, 1702-1706, 1994) using a KP-1 cell strain derived from human pancreatic cancer and an HCT 116 cell strain derived from human cancer of the colon. The above-mentioned human cancer cells (5^×10^6 cells) were subcutaneously transplanted to nude mice (KSN) of 6 to 7 weeks age and, since the stage where it became to the size of about 100 mm^3, administration of the compound of the present invention was started. In the experiments, ten mice were used for a group to which no drug was administered while, in a drug-administered group, five mice were used for each dose. The dose of 50 mg/kg, 100 mg/kg or 200 mg/kg was continuously administered per os two times a day and the size of the tumor on the 22nd day from the beginning of the administration was compared with that in the group to which no drug was administered. The result was 37%, 30% and 11%, respectively in the KP-1 cell strain derived from human pancreatic cancer and 0.2%, 0.3% and 0.0%, respectively in the HCT 116 cell strain derived from human cancer of the colon in the case of a group to which the compound of Example 1 was administered for example.
row,SMILES,size of the tumor compared with that in the group to which no drug was administered [%]
1,"Cc1ccc(NS(=O)(=O)c2cccc(C#N)c2)c2[nH]cc(C#N)c12 [Example 1, 3-Cyano-N-(3-cyano-4-methyl-1H-indol-7-yl)benzenesulfonamide]",37

# Same assay, conditions: 100 mg/kg per os two times a day, 22nd day, KP-1
row,SMILES,size of the tumor compared with that in the group to which no drug was administered [%]
1,"Cc1ccc(NS(=O)(=O)c2cccc(C#N)c2)c2[nH]cc(C#N)c12 [Example 1, 3-Cyano-N-(3-cyano-4-methyl-1H-indol-7-yl)benzenesulfonamide]",30

# Same assay, conditions: 200 mg/kg per os two times a day, 22nd day, KP-1
row,SMILES,size of the tumor compared with that in the group to which no drug was administered [%]
1,"Cc1ccc(NS(=O)(=O)c2cccc(C#N)c2)c2[nH]cc(C#N)c12 [Example 1, 3-Cyano-N-(3-cyano-4-methyl-1H-indol-7-yl)benzenesulfonamide]",11

# Same assay, conditions: overall statement for KP-1 and HCT 116 transplanted nude mice
row,SMILES,antitumor effect
1,"Cc1ccc(NS(=O)(=O)c2cccc(C#N)c2)c2[nH]cc(C#N)c12 [Example 1, 3-Cyano-N-(3-cyano-4-methyl-1H-indol-7-yl)benzenesulfonamide]",significant antitumor effect

# System: aorta pieces of rat
# Assay: Antiangiogenic effect: capillary formation from rat aorta pieces incubated in collagen
# Assay type: cell-based
# Settings: numbers of capillaries formed around the aorta, 7th day from addition of test compound
# Description: The inhibition degree of angiogenesis which was observed when aorta pieces of rat were incubated in collagen was defined as an antiangiogenic effect. That is, the aorta excised from male rat of Sprague-Dawley strain (10-12 weeks age) was washed with a Hanks' solution so that fat tissues around there were removed minutely. The aorta was incised to prepare pieces of 2 mm square and they were allowed to stand in a 24-well plate holding the endothelial cells upside. Then, 500 μl of neutralized Type I collagen (Cell Matrix Type I-A; manufactured by Nitta Gelatin) were poured over each well and allowed to stand at room temperature for about 20 minutes in a clean bench to solidify the gel. After confirming that the gel was solidified, 500 μl of MCDB 131 medium (manufactured by Chlorella Kogyo) were added thereto followed by incubating in a CO2 incubator (5% CO2) at 37° C. On the next day, the culture medium was exchanged with 500 μl of MCDB 131 medium containing the test compound and the incubation was continued. After three days, the medium was again exchanged with 500 μl of MCDB 131 medium containing the test compound and, at the stage of the 7th day from the initiation of addition of the test compound, numbers of capillaries formed around the aorta were counted under a microscope. The solution containing the test compound was prepared in a three-fold dilution system where 10 μg/ml was the highest concentration.
# Inhibiting rate was calculated from the following formula and 50% inhibiting concentration (IC50) for each test compound was determined.
# as §2
# C: Numbers of capillaries when no compound was added
# T: Numbers of capillaries when a compound was added
row,SMILES,IC50 [µg/mL]
1,"Cc1ccc(NS(=O)(=O)c2cccc(C#N)c2)c2[nH]cc(C#N)c12 [Example 1, 3-Cyano-N-(3-cyano-4-methyl-1H-indol-7-yl)benzenesulfonamide]",0.08
2,"Cc1ccc(NS(=O)(=O)c2ccc(Cl)nc2)c2[nH]cc(C#N)c12 [Example 2, 6-Chloro-N-(3-cyano-4-methyl-1H-indol-7-yl)-3-pyridinesulfonamide]",0.07
3,"Cc1cc(NS(=O)(=O)c2ccc(S(N)(=O)=O)cc2)c2[nH]cc(Br)c2c1 [Example 3, N-(3-Bromo-5-methyl-1H-indole-7-yl)-4-sulfamoylbenzenesulfonamide]",0.1
4,"Nc1ccc(S(=O)(=O)Nc2cc(Br)cc3c(Cl)c[nH]c23)cn1 [Example 4, 6-Amino-N-(5-bromo-3-chloro-1H-indole-7-yl)-3-pyridinesulfonamide]",0.1
5,"Cc1cc(NS(=O)(=O)c2cccc(C#N)c2)c2[nH]cc(Br)c2c1 [Example 5, N-(3-Bromo-5-methyl-1H-indole-7-yl)-3-cyanobenzenesulfonamide]",0.15
6,"N#Cc1ccc(S(=O)(=O)Nc2ccc(Br)c3cc[nH]c23)cc1 [Example 6, N-(4-Bromo-1H-indole-7-yl)-4-cyanobenzenesulfonamide]",0.06
7,"Nc1ccc(S(=O)(=O)Nc2ccc(Cl)c3cc[nH]c23)cn1 [Example 7, 6-Amino-N-(4-chloro-1H-indole-7-yl)-3-pyridinesulfonamide]",0.42
8,"Nc1ccc(S(=O)(=O)Nc2ccc(Cl)c3c(Br)c[nH]c23)cn1 [Example 8, 6-Amino-N-(3-bromo-4-chloro-1H-indole-7-yl)-3-pyridinesulfonamide]",0.05
9,"Cc1cc(NS(=O)(=O)c2ccc(C#N)s2)c2[nH]cc(Br)c2c1 [Example 9, N-(3-Bromo-5-methyl-1H-indole-7-yl)-5-cyano-2-thiophenesulfonamide]",0.05
10,"Nc1ncc(S(=O)(=O)Nc2ccc(Br)c3c(Cl)c[nH]c23)cn1 [Example 10, 2-Amino-N-(4-bromo-3-chloro-1H-indole-7-yl)-5-pyrimidinesulfonamide]",0.06

# System: HCT 116 cell strain derived from human cancer of the colon
# Assay: Antitumor effect, HCT 116 human colon cancer subcutaneously transplanted to nude mice
# Assay type: in vivo, nude mice (KSN)
# Settings: 50 mg/kg per os two times a day, 22nd day
# Description: as §5
row,SMILES,size of the tumor compared with that in the group to which no drug was administered [%]
1,"Cc1ccc(NS(=O)(=O)c2cccc(C#N)c2)c2[nH]cc(C#N)c12 [Example 1, 3-Cyano-N-(3-cyano-4-methyl-1H-indol-7-yl)benzenesulfonamide]",0.2

# Same assay, conditions: 100 mg/kg per os two times a day, 22nd day
row,SMILES,size of the tumor compared with that in the group to which no drug was administered [%]
1,"Cc1ccc(NS(=O)(=O)c2cccc(C#N)c2)c2[nH]cc(C#N)c12 [Example 1, 3-Cyano-N-(3-cyano-4-methyl-1H-indol-7-yl)benzenesulfonamide]",0.3

# Same assay, conditions: 200 mg/kg per os two times a day, 22nd day
row,SMILES,size of the tumor compared with that in the group to which no drug was administered [%]
1,"Cc1ccc(NS(=O)(=O)c2cccc(C#N)c2)c2[nH]cc(C#N)c12 [Example 1, 3-Cyano-N-(3-cyano-4-methyl-1H-indol-7-yl)benzenesulfonamide]",0.0
